Where two headings read alike, the source gives them in different places.
How the values were obtained:
[1] = ether bond, 13-membered ring, 100.0 °C
[2] = ether bond, 13-membered ring, 100.0 °C; remark: listed apart in the source

## CCOC(=O)C[C@@H]1NC(=O)C(n2cc(CCN3CC(F)C3)c(C(F)(F)F)cc2=O)c2cccc(c2)Oc2cc(C3CC3)cc(C)c2-c2cc1c(F)c(C(F)(F)F)c2 (some centres unmarked)
[1]; from CCOC(=O)C[C@H](NC(=O)C(c1cccc(Br)c1)n1cc(CCN2CC(F)C2)c(C(F)(F)F)cc1=O)c1cc(-c2c(C)cc(C3CC3)cc2O)cc(C(F)(F)F)c1F, CuI/(1R,2R)-N1,N2-dimethylcyclohexane-1,2-diamine/K2CO3, dioxane, 40.0 mM, 16.0 h
  ring closure, yield after HPLC: 31.4%

## CCOC(=O)C[C@@H]1NC(=O)C(n2cccc(-c3ccccc3)c2=O)c2cc(ccc2F)Oc2cccc(C)c2-c2cc(C)c(F)c1c2 (some centres unmarked)
[1]; from CCOC(=O)C[C@H](NC(=O)C(c1cc(Br)ccc1F)n1cccc(-c2ccccc2)c1=O)c1cc(-c2c(C)cccc2O)cc(C)c1F, CuI/(1R,2R)-N,N'-dimethylcyclohexane-1,2-diamine/K2CO3, dioxane, 70.0 mM, 2.0 h
  ring closure, yield after HPLC: 48.2%

## CCOC(=O)C[C@@H]1NC(=O)C(n2cc(CCN3CC(F)C3)c(C(F)(F)F)cc2=O)c2cccc(c2)Oc2cc(Cl)cc(C)c2-c2cc1c(F)c(C(F)(F)F)c2 (some centres unmarked)
[1]; from CCOC(=O)C[C@H](NC(=O)C(c1cccc(Br)c1)n1cc(CCN2CC(F)C2)c(C(F)(F)F)cc1=O)c1cc(-c2c(C)cc(Cl)cc2O)cc(C(F)(F)F)c1F, CuI/(1R,2R)-N1,N2-dimethylcyclohexane-1,2-diamine/K2CO3, dioxane, 34.0 mM, 4.0 h
  ring closure, yield after HPLC: 33%

## CCOC(=O)C[C@@H]1NC(=O)C(n2ccc3occc3c2=O)c2cc(ccc2F)Oc2cccc(C)c2-c2cc(C)c(F)c1c2 (some centres unmarked)
[1]; from CCOC(=O)C[C@H](NC(=O)C(c1cc(Br)ccc1F)n1ccc2occc2c1=O)c1cc(-c2c(C)cccc2O)cc(C)c1F, CuI/(1S,2S)-N,N'-dimethylcyclohexane-1,2-diamine/K2CO3, dioxane, 30.0 mM, 4.0 h
  ring closure, yield after HPLC: 36.3%

## CCOC(=O)C[C@@H]1NC(=O)C(n2ccc3ccoc3c2=O)c2cc(ccc2F)Oc2cccc(C)c2-c2cc(C)c(F)c1c2 (stereo in doubt)
[1]; from CCOC(=O)C[C@H](NC(=O)C(c1cc(Br)ccc1F)n1ccc2ccoc2c1=O)c1cc(-c2c(C)cccc2O)cc(C)c1F, CuI/(1R,2R)-N,N'-dimethylcyclohexane-1,2-diamine/K2CO3, 1,4-dioxane, 37.5 mM, 4.0 h
  ring closure, yield after HPLC: 50.9%

## CCOC(=O)C[C@@H]1NC(=O)C(n2cc(CCN3CC(F)C3)c(C(F)(F)F)cc2=O)c2cc(ccc2F)Oc2ccc(F)c(C)c2-c2cc(C)c(F)c1c2 (stereo in doubt)
[2]; from CCOC(=O)C[C@H](NC(=O)C(c1cc(Br)ccc1F)n1cc(CCN2CC(F)C2)c(C(F)(F)F)cc1=O)c1cc(-c2c(O)ccc(F)c2C)cc(C)c1F, CuI/K2CO3/(1R,2R)-N1,N2-dimethylcyclohexane-1,2-diamine, dioxane, 34.0 mM, 16.0 h
  ring closure, isolated yield: 55.2%

## CCOC(=O)C[C@@H]1NC(=O)C(n2cc(CCN3CC(F)C3)c(C(F)(F)F)cc2=O)c2cc(ccc2F)Oc2cc(Cl)cc(C)c2-c2cc(C)c(F)c1c2 (stereo in doubt)
[2]; from CCOC(=O)C[C@H](NC(=O)C(c1cc(Br)ccc1F)n1cc(CCN2CC(F)C2)c(C(F)(F)F)cc1=O)c1cc(-c2c(C)cc(Cl)cc2O)cc(C)c1F, CuI/(1R,2R)-N1,N2-dimethylcyclohexane-1,2-diamine/K2CO3, dioxane, 47.0 mM, 16.0 h
  ring closure, isolated yield: 52.5%

## COC(=O)C[C@@H]1NC(=O)C(n2ccc(C(F)(F)F)cc2=O)c2cc(ccc2F)Oc2cccc(C)c2-n2cc1c(C(F)(F)F)n2 (some centres unmarked)
[2]; from COC(=O)C[C@H](NC(=O)C(c1cc(Br)ccc1F)n1ccc(C(F)(F)F)cc1=O)c1cn(-c2c(C)cccc2O)nc1C(F)(F)F, CuI/(1R,2R)-N,N'-dimethylcyclohexane-1,2-diamine/K2CO3, 1,4-dioxane, 65.0 mM, 2.0 h
  ring closure, isolated yield: 22.5%

## CCOC(=O)C[C@@H]1NC(=O)C(n2cc(CCN(C)C)c(C(F)(F)F)cc2=O)c2cccc(c2)Oc2cccc(C)c2-c2cc1c(F)c(C(F)(F)F)c2 (stereo in doubt)
[2]; from CCOC(=O)C[C@H](NC(=O)C(c1cccc(Br)c1)n1cc(CCN(C)C)c(C(F)(F)F)cc1=O)c1cc(-c2c(C)cccc2O)cc(C(F)(F)F)c1F, CuI/(1R,2R)-N1,N2-dimethylcyclohexane-1,2-diamine/K2CO3, dioxane, 68.3 mM, 16.0 h
  ring closure, isolated yield: 55.5%

## CCOC(=O)C[C@@H]1NC(=O)C(n2cc(CCN3CC(F)C3)c(C(F)(F)F)cc2=O)c2cc(ccc2F)Oc2cc(C(C)(C)O)cc(C)c2-c2cc(C)c(F)c1c2 (some centres unmarked)
[2]; from CCOC(=O)C[C@H](NC(=O)C(c1cc(Br)ccc1F)n1cc(CCN2CC(F)C2)c(C(F)(F)F)cc1=O)c1cc(-c2c(C)cc(C(C)(C)O)cc2O)cc(C)c1F, CuI/(1R,2R)-N1,N2-dimethylcyclohexane-1,2-diamine/K2CO3, 1,4-dioxane, 40.0 mM, 16.0 h
  ring closure, isolated yield: 28.3%

## CCOC(=O)C[C@@H]1NC(=O)C(n2cc(CCN3CC(F)C3)c(C(F)(F)F)cc2=O)c2cc(ccc2F)Oc2ccc(C)c(C)c2-c2cc(C)c(F)c1c2 (stereo in doubt)
[2]; from CCOC(=O)C[C@H](NC(=O)C(c1cc(Br)ccc1F)n1cc(CCN2CC(F)C2)c(C(F)(F)F)cc1=O)c1cc(-c2c(O)ccc(C)c2C)cc(C)c1F, CuI/(1R,2R)-N1,N2-dimethylcyclohexane-1,2-diamine/K2CO3, dioxane, 15.0 mM, 16.0 h
  ring closure, isolated yield: 64.7%

— patent US20240279214A1, “ALPHA4 BETA7 INEGRIN ANTAGONISTS AND USES THEREOF” (XinThera, Inc., priority 2022, published 2024)
